# What was measured:
# [1] = test system: pY284-ACK1; experiment: immunoprecipitation and immunoblotting for pY284-ACK1; assay type: cell-based; conditions: MDA-MB-231, HCC-1395, Cal148, T47D, MCF7, SKBR3, MDA-MB-453; overnight
# Experimental: Fig. 2 ACK1 regulates breast cancer transcriptome, affecting genes implicated in cell cycle progression. A Chemical structure of (R)-9b. B Breast cancer cell lines were treated with either vehicle or (R)-9b overnight and cell lysates were subjected to immunoprecipitation using ACK1 antibody, followed by immunoblotting with pY284-ACK1 antibody. Lysates were also subjected to immunoblotting with total ACK1 and Actin antibodies, shown in the lower panels. […] C Breast cancer cell lines were treated with varying concentrations of (R)-9b for 96 h and the cell proliferation was measured using Trypan Blue exclusion method. D–H RNA from breast cancer cells treated with vehicle or varying concentrations of (R)-9b overnight, and were subjected to qRT-PCR using CCNB1, CCNB2 and CDC20 primers. Actin or 18S rRNA was used as housekeeping control. For (B), representative images of three independent experiments are shown. For (C), a four parameter, variable slope, non-linear regression curve was computed, representing three independent experiments. For (D–H), data are represented as the mean ± SEM. *p < 0.05, **p < 0.01, ***p < 0.001, unpaired two-tailed Student’s t test.
# (§1) Vehicle or (R)-9b (5 µM, overnight in serum free media) treated cells were lysed by sonication in receptor lysis buffer (RLB) and lysates were fractionated by SDS-PAGE, and transferred onto a PVDF membrane (Immobilon). […]
# [2] = test system: CCNB1, CCNB2 and CDC20 protein; experiment: immunoblotting of CCNB1, CCNB2 and CDC20; assay type: cell-based; conditions: breast cancer cell lysates
# Text: Fig. 3 ACK1 inhibitor suppresses expression of cell cycle genes. A Cell lysates from vehicle or (R)-9b treated cells were immunoblotted using CCNB1, CCNB2 and CDC20 antibodies. B HCC-1395 and MDA-MB-231 cells were transfected with ACK1 and scrambled siRNAs, followed by qPCR using ACK1 primers, with 18S rRNA as internal control. C siRNA transfected cells were subjected to western blotting using ACK1 antibody, with Actin as loading control. RNA from silenced cells, (D) HCC-1395 and (E) MDA-MB-231 was subjected to qPCR using CCNB1, CCNB2 and CDC20 primers. 18S rRNA was used as housekeeping control. For (A) and (C), representative images of three independent experiments are shown. For (B, D, E), data are represented as the mean ± SEM. *p < 0.05, **p < 0.01, ***p < 0.001, unpaired two-tailed Student’s t test.
# as §1
# [3] = test system: MCF7 xenografts; experiment: MCF7 xenograft in mammary fat pad; assay type: in vivo, female SCID mice; conditions: orally 36 mg/Kg or subcutaneously 24 mg/Kg
# Experimental: Fig. 6 (R)-9b inhibits breast cancer xenograft tumor growth in vivo. A 2 × 10^6 Cal-148 cells were injected in the 4th inguinal mammary fat pad of female SCID mice. Once the tumors were palpable, the mice were treated subcutaneously with either vehicle (Captisol; n = 8) or (R)-9b at 24 mg/Kg (n = 8) five times a week, for 4 weeks. The tumor volumes were measured twice a week. B, C The tumors were harvested and photographed, and the weights were recorded. D RNA was prepared from the tumors, followed by qRT-PCR to determine the levels of CCNB1, CCNB2 and CDC20 mRNA (n = 3 each). E and F 2 × 10^6 MCF7 cells were injected in the 4th inguinal mammary fat pad of female SCID mice with continuous supplementation of estrogen. Once the tumors were palpable, the mice were treated with vehicle (Captisol; n = 7), (R)-9b at 24 mg/Kg subcutaneously (n = 8), or orally with (R)-9b at 36 mg/Kg (n = 8), five times a week, for 4 weeks. The tumors were harvested, their weights were recorded and photographed. G Tumor lysates were subjected to immunoblotting using pACK1, CCNB1, CCNB2, CDC20 and Actin antibodies (n = 3 each). H RNA was prepared from the tumors, followed by qRT-PCR to determine the levels of CCNB1, CCNB2 and CDC20 mRNA (n = 3 each). Data are represented as the mean ± SEM. *p < 0.05; **p < 0.01; ***p < 0.001. For (C) and (D), unpaired two-tailed Student’s t test, and for (E) and (H), one way ANOVA was performed.
# In addition, effect of (R)-9b was assessed in ER^+/PR^+ breast cancer xenografts. Briefly, MCF7 cells were implanted in mammary fat pad of female SCID mice. Once the tumors were palpable, the mice were treated orally (36 mg/Kg) or injected subcutaneously with 24 mg/Kg of (R)-9b for 4 weeks. […] Further, RNA was isolated from the xenograft tumors and CDC20, CCNB1 and CCNB2 mRNA levels were examined.
# All animal experiments were performed using the standards for humane care in accordance with the NIH Guide for the Care and Use of Laboratory Animals. […] Tumor volumes were measured twice a week using calipers. […]
# [4] = test system: prostate cancer cell lines; set-up: method as in PMID 28609657; conditions: various prostate cancer cell lines; cited from earlier work
compound,measurement,setting,value
CN1CCN(c2ccc(Nc3ncc(Cl)c(NC[C@H]4CCCO4)n3)cc2)CC1 [(R)-9b],pY284-ACK1 levels (ACK1 activation),[1],reduced pY284-ACK1 levels
same,"CCNB1, CCNB2 and CDC20 protein abundance",[2],decrease in respective protein abundance
same,"CDC20, CCNB1 and CCNB2 mRNA levels in tumors",[3],significant reduction
same,"CDC20, CCNB1 and CCNB2 protein levels in tumor lysates",[3],marked decrease
same,xenograft tumor growth,[3]; 4 weeks,significant loss of tumor growth
same,IC50,[4],400 nM
